The values below come from patent publication US20120122931A1, “INDOLE DERIVATIVE OR PHARMACEUTICALLY ACCEPTABLE SALT THEREOF” (KISSEI PHARMACEUTICAL CO., LTD., priority 2009, published 2012).

The first assay deals with T1, rat EP1 receptor (Rattus norvegicus, UniProt P70597).
T1 construct: expressed in transfected cells; host or cells: COS-1 cells, transient transfection with Lipofectamine 2000
T1 sequence (P70597 1-405): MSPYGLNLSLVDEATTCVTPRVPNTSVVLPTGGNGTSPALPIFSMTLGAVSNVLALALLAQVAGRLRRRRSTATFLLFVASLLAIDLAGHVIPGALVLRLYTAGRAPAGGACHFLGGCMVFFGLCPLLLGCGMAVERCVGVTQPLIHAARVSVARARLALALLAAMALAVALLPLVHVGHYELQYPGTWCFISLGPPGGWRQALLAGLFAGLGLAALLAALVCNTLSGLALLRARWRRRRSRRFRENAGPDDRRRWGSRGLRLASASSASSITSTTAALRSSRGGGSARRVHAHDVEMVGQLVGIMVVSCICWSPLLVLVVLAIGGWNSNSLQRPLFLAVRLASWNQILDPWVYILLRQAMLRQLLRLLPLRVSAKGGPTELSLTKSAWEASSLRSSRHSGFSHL
Description: Test for confirmation of EP1 receptor antagonism: inhibition of prostaglandin E2-induced increase in intracellular calcium concentration (Method A or Method B). The format is cell-based. To be noted: Method A (Fluo-4 NW, FlexStation); rat EP1 receptor-expressing cells; prostaglandin E2 10 nM. On the procedure: (1) Preparation of Rat EP1 Expression vector
Using Rat Kidney BD Marathon-Ready cDNA (Nippon Becton Dickinson Company, Ltd.) as a template, a forward primer shown in SEQ ID NO. 1, and a reverse primer shown in SEQ ID NO. 2, a first run of PCR was carried out using KOD-Plus-Ver 2.0 (Toyobo Co., Ltd.). Further, using this amplification product as a template, a forward primer shown in SEQ ID NO. 3, and a reverse primer shown in SEQ ID NO. 4, a second run of PCR was carried out in the same manner. The amplification product obtained by the second run of PCR was incorporated into a vector (pcDNA3.1 D/V5-His-TOPO (registered trademark), Invitrogen Japan K. K.). By a conventional method, the vector containing this amplification product was introduced to E. coli (One Shot TOP10 Competent Cells, Invitrogen Corporation) to transform. This transformed E. coli was cultured in an LB agar medium for one day. After the culture, colonies were selected and cultured in an LB liquid medium containing 50 μg/mL of ampicillin. After the culture, the vector was purified using a QIAprep Spin Miniprep Kit (Qiagen K. K.). The base sequence of the insertion site of this vector (SEQ ID NO. 5) was compared with the rat EP1 base sequence (Ptger1) registered as an accession number NM_013100 in well-known database (NCBI), and as a result, they all matched except for a single base. Further, the amino acid sequence translated by the base sequence completely matched the amino acid sequence of the rat EP1 receptor registered as an NCBI accession number NP_037232. Therefore, it was confirmed that the cloned gene sequence was a base sequence of the rat EP1 receptor and the obtained amino acid sequence was that of the rat EP1 receptor. The pcDNA3.1 D/V5-His-TOPO (registered trademark) to which the nucleic acid shown in SEQ ID NO. 5 had been inserted was taken as a rat EP1-expressing vector.
(2) Preparation of Rat EP1 Receptor-Expressing Cells
COS-1 cells (Dainippon Sumitomo Pharma Co., Ltd.) were cultured until it reached confluence in an incubator at 37° C. under a 5% CO2 gas condition, using a D-MEM liquid medium (high glucose and L-glutamine contained, Invitrogen Corporation) to which a penicillin-streptomycin solution (Invitrogen Corporation, final concentration: 100 U/mL as benzylpenicillin; 100 μg/mL as streptomycin) as an antibiotic, MEM nonessential amino acids (Invitrogen Corporation, final Concentration: 0.1 mM), and fetal calf serum (Sanko Junyaku Co., Ltd., final concentration: 10%) were added.
(2-2) COS-1 Cell Subculture
The cells that had reached confluence were stripped with 0.05% trypsin/0.53 mM EDTA 4Na (Invitrogen Japan K. K.) and resuspended in the above liquid medium. The resuspended cells were diluted and cultured in the above liquid medium at a spread ratio from 1:4 to 1:8.
(2-3) Preparation of Cells for Introduction of Rat EP1-Expressing Vector
The cells that had reached confluence were stripped with 0.05% trypsin/0.53 mM EDTA.4Na, and resuspended in a D-MEM liquid medium (high glucose and L-glutamine contained, Invitrogen Corporation) to which an MEM nonessential amino acid (final concentration: 0.1 mM) and fetal calf serum (final concentration: 10%) were added. In each well of a Poly D-lysine-coated 96-well microplate (BD BioCoat (registered trademark), Nippon Becton Dickinson Company, Ltd.), this resuspended cell suspension culture was prepared to be 5×10^4 cells/well in 100 μL of the liquid medium, and seeded thereon. After seeding, the cells were cultured in an incubator at 37° C. under a 5% CO2 gas condition. At a point when the cells for introduction of a rat EP1-expressing vector were adhered (about 2 hours after seeding), introduction of the rat EP1-expressing vector was carried out in the following order.
(2-4) Introduction of Rat EP1-Expressing Vector
For introduction of the rat EP1-expressing vector, Lipofectamine 2000 (Invitrogen Japan K. K.) was used. […]
In general terms: Calcium assays in cells follow changes in intracellular calcium, usually with a dye or a luminescent sensor.
In general, IC50 refers to the concentration needed to halve the response being measured. As for `Cc1ccc2c(Cc3cccc(C(=O)O)n3)c(-c3ccccc3)[nH]c2c1` [Example 4-35, 6-(6-methyl-2-phenyl-1H-indol-3-ylmethyl)pyridine-2-carboxylic acid], the concentration for half-maximal inhibition (IC50) is 18 nM.
The same measure, in the same setting: the same measure for `O=C(O)c1cccc(Cc2c(-c3ccccc3)[nH]c3cc(Cl)ccc23)n1` [Example 4-17, 6-(6-chloro-2-phenyl-1H-indol-3-ylmethyl)pyridine-2-carboxylic acid]: 15 nM; for `O=C(O)c1cccc(Cc2c(-c3ccccc3)[nH]c3cc(C(F)(F)F)ccc23)n1` [Example 11-3]: 42 nM.
The same measure, in the same setting: the result for `CCc1ccc2c(Cc3cccc(C(=O)O)n3)c(-c3ccccc3)[nH]c2c1` [Example 4-27] reads 28 nM.

Staying with this assay, now noted: Method B (Calcium kit II Fluo 4, FDSS 7000); rat EP1 receptor-expressing cells; prostaglandin E2 10 nM.
Consider `COc1cc2[nH]c(-c3ccc(F)cc3)c(Cc3cccc(C(=O)O)n3)c2cc1C` [Example 16-85, 6-[2-(4-fluorophenyl)-6-methoxy-5-methyl-1H-indol-3-ylmethyl]pyridine-2-carboxylic acid], for which the IC50 is 18 nM.
The same measure, in the same setting: the result for `COc1ccc2c(Cc3cccc(C(=O)O)n3)c(-c3ccoc3)[nH]c2c1` [Example 11-10, 6-(2-furan-3-yl-6-methoxy-1H-indol-3-ylmethyl)pyridine-2-carboxylic acid] reads 15 nM.
The same measure, in the same setting: the result for `O=C(O)c1cccc(Cc2c(-c3ccsc3)[nH]c3cc(C4CC4)ccc23)n1` [Example 16-65, 6-(6-cyclopropyl-2-thiophen-3-yl-1H-indol-3-ylmethyl)pyridine-2-carboxylic acid] reads 14 nM; that for `COc1ccc2c(Cc3cccc(C(=O)O)n3)c(-c3cncs3)[nH]c2c1` [Example 11-24, 6-(6-methoxy-2-thiazol-5-yl-1H-indol-3-ylmethyl)pyridine-2-carboxylic acid], 41 nM; that for `COc1ccc2c(Cc3nc(C(=O)O)cs3)c(-c3ccccc3)[nH]c2c1` [Example 11-37], 50 nM.
Still for that read-out and setting: the result for `CC(C)Cc1cn(-c2cccc(C(=O)O)n2)c2cc(Cl)ccc12` [Comparative Example, sodium 6-(6-chloro-3-isobutylindol-1-yl)pyridine-2-carboxylate, reference compound] reads 476 nM; that for `COc1cc2[nH]c(C(C)C)c(Cc3cccc(C(=O)O)n3)c2cc1Cl` [Example 16-109, 6-(5-chloro-2-isopropyl-6-methoxy-1H-indol-3-ylmethyl)pyridine-2-carboxylic acid], 35 nM; that for `COc1cc2[nH]c(C(C)C)c(Cc3cccc(C(=O)O)n3)c2cc1F` [Example 18-1, 6-(5-fluoro-2-isopropyl-6-methoxy-1H-indol-3-ylmethyl)pyridine-2-carboxylic acid], 39 nM.
For the molecule `CCOc1ccc2c(Cc3cccc(C(=O)O)n3)c(-c3ccsc3)[nH]c2c1` [Example 16-61, 6-(6-ethoxy-2-thiophen-3-yl-1H-indol-3-ylmethyl)pyridine-2-carboxylic acid], the IC50 was 43 nM.
Still for that read-out and setting: the same measure for `COc1ccc2c(Cc3cccc(C(=O)O)c3F)c(-c3ccccc3)[nH]c2c1` [Example 16-9, 2-fluoro-3-(6-methoxy-2-phenyl-1H-indol-3-ylmethyl)benzoic acid]: 41 nM; for `O=C(O)c1cccc(Cc2c(-c3ccccc3)[nH]c3cc(C(F)(F)F)c(F)cc23)n1` [Example 16-45]: 26 nM.
Still for that read-out and setting: the result for `O=C(O)c1cccc(Cc2c(-c3ccccc3)[nH]c3cc(Br)ccc23)n1` [Example 16-38] reads 36 nM; that for `COc1ccc2c(Cc3cccc(C(=O)O)n3)c(-c3cccs3)[nH]c2c1` [Example 11-17, 6-(6-methoxy-2-thiophen-2-yl-1H-indol-3-ylmethyl)pyridine-2-carboxylic acid], 50 nM; that for `COc1ccc2c(Cc3cccc(C(=O)O)n3)c(-c3cc(F)c(F)c(F)c3)[nH]c2c1` [Example 16-6, 6-[6-methoxy-2-(3,4,5-trifluorophenyl)-1H-indol-3-ylmethyl]pyridine-2-carboxylic acid], 44 nM.
`COc1ccc2c(Cc3cccc(C(=O)O)c3)c(-c3ccoc3)[nH]c2c1` [Example 11-15, 3-(2-furan-3-yl-6-methoxy-1H-indol-3-ylmethyl)benzoic acid]: the 50% inhibitory concentration (IC50) turned out to be 48 nM.
The same measure, in the same setting: the result for `Cc1cc2[nH]c(-c3ccccc3)c(Cc3cccc(C(=O)O)n3)c2cc1C` [Example 16-44, 6-(5,6-dimethyl-2-phenyl-1H-indol-3-ylmethyl)pyridine-2-carboxylic acid] reads 11 nM; that for `Cc1ccc2c(Cc3cccc(C(=O)O)n3)c(-c3ccsc3)[nH]c2c1` [Example 16-21, 6-(6-methyl-2-thiophen-3-yl-1H-indol-3-ylmethyl)pyridine-2-carboxylic acid], 24 nM.
As for `COc1cccc(-c2[nH]c3cc(OC)ccc3c2Cc2cccc(C(=O)O)n2)c1` [Example 11-34, 6-[6-methoxy-2-(3-methoxyphenyl)-1H-indol-3-ylmethyl]pyridine-2-carboxylic acid], the IC50 came to 36 nM.
On the same count and under the same terms, the same measure for `Cc1cc2c(Cc3cccc(C(=O)O)n3)c(-c3ccccc3)[nH]c2cc1Cl` [Example 16-59, 6-(6-chloro-5-methyl-2-phenyl-1H-indol-3-ylmethyl)pyridine-2-carboxylic acid]: 19 nM; for `COc1ccc2c(Cc3cccc(C(=O)O)n3)c(-c3ccc(F)cc3)[nH]c2c1` [Example 11-13, 6-[2-(4-fluorophenyl)-6-methoxy-1H-indol-3-ylmethyl]pyridine-2-carboxylic acid]: 31 nM; for `Cc1cc2[nH]c(-c3ccccc3)c(Cc3cccc(C(=O)O)n3)c2cc1F` [Example 16-53, 6-(5-fluoro-6-methyl-2-phenyl-1H-indol-3-ylmethyl)pyridine-2-carboxylic acid]: 31 nM.
In the case of `O=C(O)c1cccc(Cc2c(-c3ccc(F)cc3)[nH]c3cc(C4CC4)ccc23)n1` [Example 16-62, 6-[6-cyclopropyl-2-(4-fluorophenyl)-1H-indol-3-ylmethyl]pyridine-2-carboxylic acid], the IC50 was found to be 27 nM.
On the same count and under the same terms, the result for `Cc1cc2[nH]c(-c3ccsc3)c(Cc3cccc(C(=O)O)n3)c2cc1C` [Example 16-51, 6-(5,6-dimethyl-2-thiophen-3-yl-1H-indol-3-ylmethyl)pyridine-2-carboxylic acid] reads 14 nM; that for `Cc1cc2[nH]c(-c3ccsc3)c(Cc3cccc(C(=O)O)n3)c2cc1F` [Example 16-56, 6-(5-fluoro-6-methyl-2-thiophen-3-yl-1H-indol-3-ylmethyl)pyridine-2-carboxylic acid], 39 nM.
Same read-out and setting: the result for `COc1cc2[nH]c(-c3ccsc3)c(Cc3cccc(C(=O)O)n3)c2cc1C` [Example 16-24, 6-(6-methoxy-5-methyl-2-thiophen-3-yl-1H-indol-3-ylmethyl)pyridine-2-carboxylic acid] reads 22 nM.
